The record followed here is patent US20250361268A1, “NOVEL ANTI-INFLAMMATORY PEPTIDE AND USE THEREOF” (NOVACELL TECHNOLOGY INC., priority 2022, published 2025).

Peptide text beside a SMILES is read from it.

As usually defined, the EC50 is the concentration that produces a half-maximal response.

The target in test [1] is T1, FPR2 (Homo sapiens, UniProt P25090).
T1 construct: expressed in transfected cells; host or cells: RBL cells (RBL-FPR2)
T1 sequence (P25090 1-351): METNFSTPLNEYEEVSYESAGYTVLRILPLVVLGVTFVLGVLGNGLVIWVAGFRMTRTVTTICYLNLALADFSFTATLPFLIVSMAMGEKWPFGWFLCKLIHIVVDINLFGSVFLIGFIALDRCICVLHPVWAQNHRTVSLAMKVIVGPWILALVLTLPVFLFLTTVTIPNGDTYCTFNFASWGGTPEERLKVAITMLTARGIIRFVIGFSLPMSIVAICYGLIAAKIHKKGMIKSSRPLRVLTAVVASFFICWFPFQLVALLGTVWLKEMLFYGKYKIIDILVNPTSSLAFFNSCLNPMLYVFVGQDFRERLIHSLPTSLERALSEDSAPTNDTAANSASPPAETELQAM
Nature of the test: Change in calcium activity by peptide (Fura-2) in RBL cells overexpressing FPR2. Particulars: calcium activity (Fura-2), graded per Table 3, read-out: EC50 for [Ca^2+] FPR2. The test is classed as cell-based. As for the experimental part:
The present inventors observed changes in calcium ion permeability to confirm whether the immunomodulatory peptide candidates prepared according to one example of the present invention activate the immune function of a living organism. Specifically, the concentration of calcium ions in cells was measured to confirm whether the peptides activate FPR2.
A peptide dissolved in water or 50% DMSO at a concentration of 0.5 mM was prepared by diluting it to an appropriate concentration in HBSS (Sigma, #55037C)+20 mM HEPES buffer.
In this experiment, the cells were cultured in DMEM (Lonza, #BE12-604F) containing 10% fetal bovine serum (FBS) and 1% penicillin-streptomycin under conditions of 37° C. and 5% CO2.
(§1) The day before measuring calcium activity, the cells were prepared at 3×10^5 cells per well in a 96-well flat clear bottom black plate (Costar, #3603). The prepared cells were treated with a Fura-2 QBT calcium kit (component A; Molecular Devices, #8197) at the same volume per well. After incubation at 37° C. for 1 hour, the cells were incubated in a dark room at room temperature for 30 minutes. After the Fura-2-treated cells, the prepared peptide, and a dedicated tip were placed at each section of FlexStation 3 Multi-Mode Microplate Reader (Molecular Devices, #Flex3), changes in calcium activity caused by the peptides were measured using SoftMax Pro 7 Software (Molecular Devices, #FLEX3-INSTALL-OS).

Test [2] has as its target T2, FPR1 (Homo sapiens, UniProt P21462).
T2 sequence (P21462 1-350): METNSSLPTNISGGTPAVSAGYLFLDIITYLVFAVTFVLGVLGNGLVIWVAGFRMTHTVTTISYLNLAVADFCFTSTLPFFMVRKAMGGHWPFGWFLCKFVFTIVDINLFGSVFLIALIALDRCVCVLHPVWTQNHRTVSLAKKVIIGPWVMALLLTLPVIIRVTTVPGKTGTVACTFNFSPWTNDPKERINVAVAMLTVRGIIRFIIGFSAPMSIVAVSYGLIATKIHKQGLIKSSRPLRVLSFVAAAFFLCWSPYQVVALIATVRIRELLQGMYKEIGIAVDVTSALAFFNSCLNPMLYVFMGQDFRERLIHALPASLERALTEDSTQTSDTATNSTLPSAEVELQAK
Nature of the test: Change in calcium activity by peptide, FPR1 activation effect. Type of test: cell-based. Particulars: calcium activity (Fura-2), graded per Table 3, read-out: EC50 for [Ca^2+] FPR1. Here is the method: as §1, with “#FLEX3-INSTALL-OS). […]” for “#FLEX3-INSTALL-OS).”

For the compound `CSCC[C@@H](NC(=O)[C@H](Cc1ccc(O)cc1)NC(=O)[C@H](Cc1ccc(O)cc1)NC(=O)[C@H](Cc1ccc(O)cc1)NC(=O)[C@H](CCCNC(=N)N)NC(=O)[C@H](Cc1c[nH]c2ccccc12)NC(C)=O)C(N)=O` [Peptide 124] (HELM PEPTIDE1{[ac].W.R.Y.Y.Y.[dM].[am]}$$$$V2.0), the values for the EC50 in test [1] and in test [2] were 0.011 to 0.1 µM and 1 to 10 µM, respectively.

As to `CC[C@H](C)[C@H](NC(C)=O)C(=O)N[C@@H](CCCCN)C(=O)N[C@@H](Cc1ccc(O)cc1)C(=O)N[C@@H](CCCCN)C(=O)N1CCC[C@H]1C(=O)N[C@H](CCSC)C(N)=O` [Peptide 143] (HELM PEPTIDE1{[ac].I.K.Y.K.P.[dM].[am]}$$$$V2.0), the half-maximal effective concentration (EC50) in test [1] was less than 0.01 µM; in test [2] it was more than 10 µM.

For the compound `CSCC[C@H](NC(=O)[C@@H](N)CCCNC(=N)N)C(=O)N[C@@H](CCCNC(=N)N)C(=O)N[C@@H](Cc1ccc(O)cc1)C(=O)N[C@@H](Cc1ccc(O)cc1)C(=O)N[C@H](C(=O)N[C@H](CCSC)C(N)=O)C(C)C` [Peptide 97] (HELM PEPTIDE1{R.M.R.Y.Y.V.[dM].[am]}$$$$V2.0), the concentration for a half-maximal effect (EC50) was less than 0.01 µM in test [1] and 1 to 10 µM in test [2].

Regarding `CSCC[C@H](NC(=O)[C@@H](N)CCCNC(=N)N)C(=O)N[C@@H](CCCNC(=N)N)C(=O)N[C@@H](Cc1ccc(O)cc1)C(=O)N[C@@H](Cc1c[nH]c2ccccc12)C(=O)N1CCC[C@H]1C(=O)N[C@H](CCSC)C(N)=O` [Peptide 106] (HELM PEPTIDE1{R.M.R.Y.W.P.[dM].[am]}$$$$V2.0), the EC50 in test [1] is less than 0.01 µM; in test [2] it was 0.101 to 1 µM.

Take `CCCC(=O)N1CCC[C@H]1C(=O)N[C@@H](CCSC)C(=O)N[C@@H](CCCCN)C(=O)N[C@@H](Cc1ccc(O)cc1)C(=O)N[C@@H](CCCCN)C(=O)N[C@H](C(=O)N[C@H](CCSC)C(N)=O)C(C)C` [Peptide 27] (HELM PEPTIDE1{[CCCC(=O)[*:2]].P.M.K.Y.K.V.[dM].[am]}$$$$V2.0): the EC50 in test [1] was less than 0.01 µM; in test [2], more than 10 µM.

Consider `CSCC[C@@H](NC(=O)[C@@H](NC(=O)[C@H](CCCNC(=N)N)NC(=O)[C@H](Cc1ccc(O)cc1)NC(=O)[C@H](CCCNC(=N)N)NC(=O)[C@H](Cc1c[nH]c2ccccc12)NC(=O)[C@@H](N)CCCNC(=N)N)C(C)C)C(N)=O` [Peptide 29] (HELM PEPTIDE1{R.W.R.Y.R.V.[dM].[am]}$$$$V2.0), for which the EC50 in test [1] is less than 0.01 µM; in test [2], more than 10 µM.

As for `CSCC[C@H](NC(=O)[C@H](CCCNC(=N)N)NC(C)=O)C(=O)N[C@@H](CCCNC(=N)N)C(=O)N[C@@H](Cc1ccc(O)cc1)C(=O)N[C@@H](CCCCN)C(=O)N1CCC[C@H]1C(=O)N[C@H](CCSC)C(N)=O` [Peptide 51] (HELM PEPTIDE1{[ac].R.M.R.Y.K.P.[dM].[am]}$$$$V2.0), the figures for the EC50 in test [1] and in test [2] were less than 0.01 µM and more than 10 µM, respectively.

Consider `CSCC[C@H](N)C(=O)N[C@@H](CCCNC(=N)N)C(=O)N[C@@H](Cc1ccc(O)cc1)C(=O)N[C@@H](CCCCN)C(=O)N[C@H](C(=O)N[C@H](CCSC)C(N)=O)C(C)C` [Peptide 13] (HELM PEPTIDE1{M.R.Y.K.V.[dM].[am]}$$$$V2.0), for which the values for the concentration giving a half-maximal response (EC50) in test [1] and in test [2] were less than 0.01 µM and more than 10 µM, respectively.

As for `CCCC(=O)N[C@@H](Cc1c[nH]cn1)C(=O)N[C@@H](CCSC)C(=O)N[C@@H](CCCNC(=N)N)C(=O)N[C@@H](Cc1ccc(O)cc1)C(=O)N[C@@H](CCCCN)C(=O)N1CCC[C@H]1C(=O)N[C@H](CCSC)C(N)=O` [Peptide 60] (HELM PEPTIDE1{[CCCC(=O)[*:2]].H.M.R.Y.K.P.[dM].[am]}$$$$V2.0), the concentration for a half-maximal effect (EC50) in test [1] was less than 0.01 µM; in test [2], more than 10 µM.

Consider `CSCC[C@@H](NC(=O)[C@H](Cc1ccc(O)cc1)NC(=O)[C@H](CCCCN)NC(=O)[C@H](Cc1ccc(O)cc1)NC(=O)[C@H](CCCNC(=N)N)NC(=O)[C@@H](N)Cc1c[nH]c2ccccc12)C(N)=O` [Peptide 35] (HELM PEPTIDE1{W.R.Y.K.Y.[dM].[am]}$$$$V2.0), for which the EC50 in test [1] was less than 0.01 µM; in test [2] it was more than 10 µM.

With `CSCC[C@@H](NC(=O)[C@H](Cc1ccc(O)cc1)NC(=O)[C@H](CCCCN)NC(=O)[C@H](Cc1ccc(O)cc1)NC(=O)[C@H](CCCNC(=N)N)NC(=O)[C@H](Cc1c[nH]c2ccccc12)NC(=O)[C@H](CCCNC(=N)N)NC(C)=O)C(N)=O` [Peptide 33] (HELM PEPTIDE1{[ac].R.W.R.Y.K.Y.[dM].[am]}$$$$V2.0), the EC50 in test [1] is less than 0.01 µM; in test [2] it was more than 10 µM.

As for `CSCC[C@@H](NC(=O)[C@@H]1CCCN1C(=O)[C@H](Cc1ccc(O)cc1)NC(=O)[C@H](Cc1ccc(O)cc1)NC(=O)[C@H](CCCNC(=N)N)NC(=O)[C@H](Cc1c[nH]c2ccccc12)NC(C)=O)C(N)=O` [Peptide 122] (HELM PEPTIDE1{[ac].W.R.Y.Y.P.[dM].[am]}$$$$V2.0), the EC50 in test [1] is less than 0.01 µM; in test [2], 0.101 to 1 µM.

For the compound `CCCCCCCC(=O)N[C@@H](CCCNC(=N)N)C(=O)N[C@@H](CCSC)C(=O)N[C@@H](CCCNC(=N)N)C(=O)N[C@@H](Cc1ccc(O)cc1)C(=O)N[C@@H](CCCCN)C(=O)N1CCC[C@H]1C(=O)N[C@H](CCSC)C(N)=O` [Peptide 53] (HELM PEPTIDE1{[CCCCCCCC(=O)[*:2]].R.M.R.Y.K.P.[dM].[am]}$$$$V2.0), the EC50 in test [1] was less than 0.01 µM; in test [2], more than 10 µM.

With `CCCCCCCC(=O)N[C@@H](Cc1c[nH]cn1)C(=O)N[C@@H](CCSC)C(=O)N[C@@H](CCCCN)C(=O)N[C@@H](Cc1ccc(O)cc1)C(=O)N[C@@H](CCCCN)C(=O)N[C@H](C(=O)N[C@H](CCSC)C(N)=O)C(C)C` [Peptide 24] (HELM PEPTIDE1{[CCCCCCCC(=O)[*:2]].H.M.K.Y.K.V.[dM].[am]}$$$$V2.0), the EC50 is less than 0.01 µM in test [1] and more than 10 µM in test [2].

With `CCCCCCCC(=O)N1CCC[C@H]1C(=O)N[C@@H](CCCCN)C(=O)N[C@@H](Cc1ccc(O)cc1)C(=O)N[C@@H](CCCCN)C(=O)N[C@H](C(=O)N[C@H](CCSC)C(N)=O)C(C)C` [Peptide 141] (HELM PEPTIDE1{[CCCCCCCC(=O)[*:2]].P.K.Y.K.V.[dM].[am]}$$$$V2.0), the values for the EC50 in test [1] and in test [2] were less than 0.01 µM and more than 10 µM, respectively.

Take `CCCC(=O)N[C@@H](CCCNC(=N)N)C(=O)N[C@@H](CCSC)C(=O)N[C@@H](CCCNC(=N)N)C(=O)N[C@@H](Cc1ccc(O)cc1)C(=O)N[C@@H](Cc1c[nH]c2ccccc12)C(=O)N[C@@H](Cc1ccc(O)cc1)C(=O)N[C@H](CCSC)C(N)=O` [Peptide 83] (HELM PEPTIDE1{[CCCC(=O)[*:2]].R.M.R.Y.W.Y.[dM].[am]}$$$$V2.0): the concentration for a half-maximal effect (EC50) in test [1] was less than 0.01 µM; in test [2], more than 10 µM.

In the case of `CSCC[C@H](NC(=O)[C@@H]1CCCN1C(C)=O)C(=O)N[C@@H](CCCCN)C(=O)N[C@@H](Cc1ccc(O)cc1)C(=O)N[C@@H](CCCCN)C(=O)N[C@H](C(=O)N[C@H](CCSC)C(N)=O)C(C)C` [Peptide 26] (HELM PEPTIDE1{[ac].P.M.K.Y.K.V.[dM].[am]}$$$$V2.0), the figures for the EC50 in test [1] and in test [2] were less than 0.01 µM and more than 10 µM, respectively.

Regarding `CCCC(=O)N1CCC[C@H]1C(=O)N[C@@H](CCSC)C(=O)N[C@@H](CCCNC(=N)N)C(=O)N[C@@H](Cc1ccc(O)cc1)C(=O)N[C@@H](CCCCN)C(=O)N1CCC[C@H]1C(=O)N[C@H](CCSC)C(N)=O` [Peptide 64] (HELM PEPTIDE1{[CCCC(=O)[*:2]].P.M.R.Y.K.P.[dM].[am]}$$$$V2.0), the EC50 in test [1] was less than 0.01 µM; in test [2], more than 10 µM.

`CC[C@H](C)[C@H](N)C(=O)N[C@@H](CCCCN)C(=O)N[C@@H](Cc1ccccc1)C(=O)N[C@@H](CCCCN)C(=O)N1CCC[C@H]1C(=O)N[C@H](CCSC)C(N)=O` [Peptide 133] (HELM PEPTIDE1{I.K.F.K.P.[dM].[am]}$$$$V2.0): the concentration giving a half-maximal response (EC50) in test [1] was less than 0.01 µM; in test [2], more than 10 µM.
